# Laboratory results from BindingDB's records for doi:10.7270/Q23F4N3R (Burnham Center For Chemical Genomics, 2011).
# Test: hexokinase 1 inhibition, dose response, selectivity assay for HKDC1 inhibitor project, biochemical (AID 504763)
# Conditions: not given
row,SMILES,IC50
1,O=C(NCCc1ccccc1)C(c1cccs1)N(C(=O)CCl)c1ccc(Cl)cc1 (configuration not stated) [2-(4-chloro-N-(2-chloro-1-oxoethyl)anilino)-N-(2-phenylethyl)-2-thiophen-2-ylacetamide],> 80 µM
2,O=C(O)c1ccc(N=Cc2c(O)ccc3ccccc23)cc1 [MLS001205050],70.8 µM
3,"COc1cc(NC(=O)c2cnc(N)s2)cc(C(=O)Nc2cccc(C(F)(F)F)c2)c1 [2-amino-N-[3-methoxy-5-[[3-(trifluoromethyl)phenyl]carbamoyl]phenyl]-1,3-thiazole-5-carboxamide]",> 80 µM
4,Cc1cc2cc(CCNC(=O)c3ccc(S(=O)(=O)N4CCOCC4)cc3)c(O)nc2cc1C [SMR000025588],11.5 µM
5,"Cc1cccc(N2C(=O)NC(=O)C(=Cc3cc(C)n(-c4sc5c(c4C#N)CCCC5)c3C)C2=O)c1C [2-[3-[(E)-[1-(2,3-dimethylphenyl)-2,4,6-trioxo-1,3-diazinan-5-ylidene]methyl]-2,5-dimethylpyrrol-1-yl]-4,5,6,7-tetrahydro-1-benzothiophene-3-carbonitrile]",> 80 µM
6,Oc1ccc(O)c(Cc2nc3ccccc3[nH]2)c1 [SMR000298430],7.03 µM
7,CCc1nc2sc3c(O)ncnc3c2c2c1CSC(C)(C)C2 [MLS000776813],21.8 µM
8,Cc1nc2c(c(=O)c3ccccc3n2C)c(=O)n1-c1ccc(F)cc1 [SMR000439525],8.78 µM
9,CC(C)c1nc2oc3c(NCC4CCCO4)ncnc3c2c2c1COC(C)(C)C2 (configuration not stated) [MLS000084034],2.36 µM
10,Cc1ccc(SC2=C(Sc3ccc(C)cc3)C(=O)c3ccccc3C2=O)cc1 [MLS000756557],20 µM
11,O=C(COC(=O)c1n[nH]c2ccccc12)c1cccc(Br)c1 [[2-(3-bromophenyl)-2-oxoethyl] 1H-indazole-3-carboxylate],> 80 µM
12,Cc1[nH]c2ccccc2c1C1=CC(=O)C=CC1=O,9.71 µM
13,Cc1cc(Oc2ccc(C(C)(C)C)cc2)nc(N2CCOCC2)n1 [4-[4-(4-tert-butylphenoxy)-6-methylpyrimidin-2-yl]morpholine],> 80 µM
14,CCOC(=O)CSc1nc2ccc(C)cc2n2cnnc12 [MLS000999625],12.9 µM
15,N=C(NCc1ccc2c(c1)OCO2)NC(=O)c1ccccc1 [SMR000293067],> 80 µM
16,"O=C(NC1=CC(=O)c2ccccc2C1=O)c1ccccc1 [N-(1,4-dioxo-2-naphthalenyl)benzamide]",4.01 µM

# Same assay, conditions: inactive by the depositor's call
row,SMILES,IC50
1,"Cc1ccc(C(=O)c2c(C)oc3c2C(=O)C(=O)c2ccccc2-3)cc1 [2-Methyl-3-(4-methyl-benzoyl)-naphtho[1,2-b]furan-4,5-dione]",21.5 µM
